The compounds below were run on SKOV-3 (ovarian) cancer cells (assay: Cell viability (MTT) assay, SKOV3 cells). Settings: 72 hours, MTT based assay; compounds added either alone or in presence of 1-3 ng/ml of TRAIL.
Procedure: (§1) MDA-MD-231 (breast) and SKOV-3 (ovarian) cancer cells were cultured in RPMI1640 media supplemented with 10% FBS and 100 units/mL of Penicillin and Steptomycin.
(§2) Viability assays were done on a number of cells including MDA-MB-231, SKOV-3, H460, PC3, HCT-116, and SW480 cells. Cells were seeded in 96 well plates at a respective density of 5000 and 2000 cells per well and incubated at 37° C. in presence of 5% CO2 for 24 hours. Selected compounds were diluted into the media at various concentration ranging from 0.01 uM up to 100 uM. Diluted compounds were added onto the MDA-MB-231 cells. For the MDA-MB-231 SKOV3, H460, PC3, HCT-116, and SW480 cells, the compounds were added either alone or in presence of 1-3 ng/ml of TRAIL. After 72 hours cellular viability was evaluated by MTT based assays.

Structure (SMILES)	EC50 [nM]
CN[C@@H](C)C(=O)N[C@@H](CC(=O)NCCNC(=O)C[C@H](NC(=O)[C@H](C)NC)C(=O)N1CCC[C@H]1CN(CCc1ccccc1)C(=O)C(F)(F)F)C(=O)N1CCC[C@H]1CN(CCc1ccccc1)C(=O)C(F)(F)F [Compound 32]	> 1000
CN[C@@H](C)C(=O)N[C@H](C(=O)N1CCC[C@H]1CN(CCc1ccccc1)C(=O)C(F)(F)F)[C@@H](C)OCCCCCCO[C@H](C)[C@H](NC(=O)[C@H](C)NC)C(=O)N1CCC[C@H]1CN(CCc1ccccc1)C(=O)C(F)(F)F [Compound 36]	< 100
CN[C@@H](C)C(=O)N[C@H](C(=O)N1CCC[C@H]1CN(CCc1ccccc1)S(C)(=O)=O)[C@@H](C)OCCCCCCO[C@H](C)[C@H](NC(=O)[C@H](C)NC)C(=O)N1CCC[C@H]1CN(CCc1ccccc1)S(C)(=O)=O [Compound 37]	< 100
CN[C@@H](C)C(=O)NC(CCCNC(=O)c1ccc(C(=O)NCCC[C@H](NC(=O)[C@H](C)NC)C(=O)N2CCC[C@H]2C(=O)N[C@@H]2CCCc3ccccc32)cc1)C(=O)N1CCC[C@H]1CN(CCc1ccccc1)C(=O)C(F)(F)F (stereo partly drawn) [Compound 38]	< 100
CN[C@@H](C)C(=O)NC(CCCNC(=O)c1ccc(C(=O)NCCC[C@H](NC(=O)[C@H](C)NC)C(=O)N2CCC[C@H]2CN(CCc2ccccc2)C(=O)C(F)(F)F)cc1)C(=O)N1CCC[C@H]1CN(CCc1ccccc1)C(=O)C(F)(F)F (stereo partly drawn) [Compound 39]	< 1000
CN[C@@H](C)C(=O)NC(CCCNC(=O)CCC(=O)NCCC[C@H](NC(=O)[C@H](C)NC)C(=O)N1CCC[C@H]1CN(CCc1ccccc1)S(=O)(=O)c1ccc(F)cc1)C(=O)N1CCC[C@H]1CN(CCc1ccccc1)S(=O)(=O)c1ccc(F)cc1 (stereo partly drawn) [Compound 40]	< 1000
CN[C@@H](C)C(=O)N[C@@H](CCCNC(=O)C(=O)NCCC[C@H](NC(=O)[C@H](C)NC)C(=O)N1CCC[C@H]1CN(CCc1ccccc1)S(=O)(=O)c1ccc(F)cc1)C(=O)N1CCC[C@H]1CN(CCc1ccccc1)S(=O)(=O)c1ccc(F)cc1 [Compound 41]	< 1000
CN[C@@H](C)C(=O)N[C@@H](CCCNC(=O)NCCC[C@H](NC(=O)[C@H](C)NC)C(=O)N1CCC[C@H]1CN(CCc1ccccc1)S(=O)(=O)c1ccc(F)cc1)C(=O)N1CCC[C@H]1CN(CCc1ccccc1)S(=O)(=O)c1ccc(F)cc1 [Compound 42]	> 1000
CN[C@@H](C)C(=O)N[C@@H](CCCNC(=O)CCCC(=O)NCCC[C@H](NC(=O)[C@H](C)NC)C(=O)N1CCC[C@H]1CN(CCc1ccccc1)S(=O)(=O)c1ccc(F)cc1)C(=O)N1CCC[C@H]1CN(CCc1ccccc1)S(=O)(=O)c1ccc(F)cc1 [Compound 43]	< 1000
CN[C@@H](C)C(=O)N[C@@H](CCCNC(=O)CCCCC(=O)NCCC[C@H](NC(=O)[C@H](C)NC)C(=O)N1CCC[C@H]1CN(CCc1ccccc1)S(=O)(=O)c1ccc(F)cc1)C(=O)N1CCC[C@H]1CN(CCc1ccccc1)S(=O)(=O)c1ccc(F)cc1 [Compound 44]	< 1000
CN[C@@H](C)C(=O)N[C@@H](CCCNC(=O)c1ccc(C(=O)NCCC[C@H](NC(=O)[C@H](C)NC)C(=O)N2CCC[C@H]2CN(CCc2ccccc2)S(=O)(=O)c2ccc(F)cc2)cc1)C(=O)N1CCC[C@H]1CN(CCc1ccccc1)S(=O)(=O)c1ccc(F)cc1 [Compound 45]	< 1000
CN[C@@H](C)C(=O)N[C@@H](CCCCNC(=O)C(=O)NCCCC[C@H](NC(=O)[C@H](C)NC)C(=O)N1CCC[C@H]1CN(CCc1ccccc1)C(=O)C(F)(F)F)C(=O)N1CCC[C@H]1CN(CCc1ccccc1)C(=O)C(F)(F)F [Compound 46]	< 100
CN[C@@H](C)C(=O)N[C@@H](CCCCNC(=O)NCCCC[C@H](NC(=O)[C@H](C)NC)C(=O)N1CCC[C@H]1CN(CCc1ccccc1)C(=O)C(F)(F)F)C(=O)N1CCC[C@H]1CN(CCc1ccccc1)C(=O)C(F)(F)F [Compound 47]	< 1000

Each compound was assayed on MDA-MB-231 (breast) cancer cells (assay: Cell viability (MTT) assay, MDA cells). Settings: 72 hours, MTT based assay.
Procedure: as §1, §2

Structure (SMILES)	EC50 [nM]
CN[C@@H](C)C(=O)N[C@@H](CCC(=O)NCCNC(=O)CC[C@H](NC(=O)[C@H](C)NC)C(=O)N1CCC[C@H]1CN(CCc1ccccc1)C(=O)C(F)(F)F)C(=O)N1CCC[C@H]1CN(CCc1ccccc1)C(=O)C(F)(F)F [Compound 18]	< 1000
CN[C@@H](C)C(=O)N[C@@H](CCC(=O)NCCNC(=O)CC[C@H](NC(=O)[C@H](C)NC)C(=O)N1CCC[C@H]1CN(CCc1ccccc1)C(=O)C(F)(F)F)C(=O)N1CCC[C@H]1CN(CCc1ccccc1)C(=O)C(F)(F)F [Compound 19]	< 1000
CN[C@@H](C)C(=O)N[C@@H](CCC(=O)NCCNC(=O)CC[C@H](NC(=O)[C@H](C)NC)C(=O)N1CCC[C@H]1CN(CCc1ccccc1)C(=O)C(F)(F)F)C(=O)N1CCC[C@H]1CN(CCc1ccccc1)C(=O)C(F)(F)F [Compound 20]	< 1000
CN[C@@H](C)C(=O)N[C@@H](CCC(=O)NCCNC(=O)CC[C@H](NC(=O)[C@H](C)NC)C(=O)N1CCC[C@H]1CN(CCc1ccccc1)C(=O)C(F)(F)F)C(=O)N1CCC[C@H]1CN(CCc1ccccc1)C(=O)C(F)(F)F [Compound 21]	< 1000
CN[C@@H](C)C(=O)N[C@@H](CCC(=O)NCCNC(=O)CC[C@H](NC(=O)[C@H](C)NC)C(=O)N1CCC[C@H]1CN(CCc1ccccc1)C(=O)C(F)(F)F)C(=O)N1CCC[C@H]1CN(CCc1ccccc1)C(=O)C(F)(F)F [Compound 22]	< 100
CN[C@@H](C)C(=O)N[C@@H](CCC(=O)NCCNC(=O)CC[C@H](NC(=O)[C@H](C)NC)C(=O)N1CCC[C@H]1CN(CCc1ccccc1)C(=O)C(F)(F)F)C(=O)N1CCC[C@H]1CN(CCc1ccccc1)C(=O)C(F)(F)F [Compound 30]	< 100
CN[C@@H](C)C(=O)N[C@@H](CCC(=O)NCCNC(=O)CC[C@H](NC(=O)[C@H](C)NC)C(=O)N1CCC[C@H]1CN(CCc1ccccc1)C(=O)C(F)(F)F)C(=O)N1CCC[C@H]1CN(CCc1ccccc1)C(=O)C(F)(F)F [Compound 31]	< 100

Same assay, conditions: Homo sapiens, MDA-MB-231, 72 h, MTT based assay

Structure (SMILES)	EC50 [nM]
CN[C@@H](C)C(=O)N[C@H](C(=O)N1CCC[C@H]1CN(CCc1ccccc1)C(C)=O)[C@@H](C)OCC#CC#CCO[C@H](C)[C@H](NC(=O)[C@H](C)NC)C(=O)N1CCC[C@H]1CN(CCc1ccccc1)C(C)=O [Compound 5]	< 100
CN[C@@H](C)C(=O)N[C@H](C(=O)N1CCC[C@H]1CN(CCc1ccccc1)C(=O)c1ccc(OC)cc1)[C@@H](C)OCC#CC#CCO[C@H](C)[C@H](NC(=O)[C@H](C)NC)C(=O)N1CCC[C@H]1CN(CCc1ccccc1)C(=O)c1ccc(OC)cc1 [Compound 9]	< 100
CN[C@@H](C)C(=O)N[C@H](C(=O)N1CCC[C@H]1CN(CCc1ccccc1)C(=O)CNCc1ccccc1)[C@@H](C)OCC#CC#CCO[C@H](C)[C@H](NC(=O)[C@H](C)NC)C(=O)N1CCC[C@H]1CN(CCc1ccccc1)C(=O)CNCc1ccccc1 [Compound 10]	< 100
CN[C@@H](C)C(=O)NC(CCCNC(=O)c1ccc(C(=O)NCCC[C@H](NC(=O)[C@H](C)NC)C(=O)N2CCC[C@H]2C(=O)N[C@@H]2CCCc3ccccc32)cc1)C(=O)N1CCC[C@H]1C(=O)N[C@@H]1CCCc2ccccc21 (stereo partly drawn) [Compound 15]	< 100
CN[C@@H](C)C(=O)N[C@@H](CCCNC(=O)NCCC[C@H](NC(=O)[C@H](C)NC)C(=O)N1CCC[C@H]1C(=O)N[C@@H]1CCCc2ccccc21)C(=O)N1CCC[C@H]1C(=O)N[C@@H]1CCCc2ccccc21 [Compound 16]	< 100
CN[C@@H](C)C(=O)N[C@@H](CCC(=O)NCc1ccc(CNC(=O)CC[C@H](NC(=O)[C@H](C)NC)C(=O)N2CCC[C@H]2CN(CCc2ccccc2)C(=O)C(F)(F)F)cc1)C(=O)N1CCC[C@H]1CN(CCc1ccccc1)C(=O)C(F)(F)F [Compound 17]	< 1000
CN[C@@H](C)C(=O)N[C@@H](COCC#CC#CCOC[C@H](NC(=O)[C@H](C)NC)C(=O)N1CCC[C@H]1CN(CCc1ccccc1)C(=O)C(F)(F)F)C(=O)N1CCC[C@H]1CN(CCc1ccccc1)C(=O)C(F)(F)F [Compound 24]	< 100
CN[C@@H](C)C(=O)N[C@H](C(=O)N1CCC[C@H]1C(=O)N[C@@H]1CCCc2ccccc21)[C@@H](C)OCCCCCCO[C@H](C)[C@H](NC(=O)[C@H](C)NC)C(=O)N1CCC[C@H]1C(=O)N[C@@H]1CCCc2ccccc21 [Compound 25]	< 100
CN[C@@H](C)C(=O)N[C@H](C(=O)N1CCC[C@H]1CN(CCc1ccccc1)C(=O)C(C)C)[C@@H](C)OCC#CC#CCO[C@H](C)[C@H](NC(=O)[C@H](C)NC)C(=O)N1CCC[C@H]1CN(CCc1ccccc1)C(=O)C(C)C [Compound 26]	< 100
CNCC(=O)N(CCc1ccccc1)C[C@@H]1CCCN1C(=O)[C@@H](NC(=O)[C@H](C)NC)[C@@H](C)OCC#CC#CCO[C@H](C)[C@H](NC(=O)[C@H](C)NC)C(=O)N1CCC[C@H]1CN(CCc1ccccc1)C(=O)CNC [Compound 27]	< 1000
CN[C@@H](C)C(=O)N[C@H](C(=O)N1CCC[C@H]1CN(CCc1ccccc1)C(=O)C(F)F)[C@@H](C)OCC#CC#CCO[C@H](C)[C@H](NC(=O)[C@H](C)NC)C(=O)N1CCC[C@H]1CN(CCc1ccccc1)C(=O)C(F)F [Compound 28]	< 100
CN[C@@H](C)C(=O)N[C@@H](CC(=O)NCCNC(=O)C[C@H](NC(=O)[C@H](C)NC)C(=O)N1CCC[C@H]1CN(CCc1ccccc1)C(=O)C(F)(F)F)C(=O)N1CCC[C@H]1CN(CCc1ccccc1)C(=O)C(F)(F)F [Compound 35]	< 1000

Same assay, conditions: Homo sapiens, MDA-MB-231; 72 hours, MTT based assay

Structure (SMILES)	EC50 [nM]
CN[C@@H](C)C(=O)N[C@H](C(=O)N1CCC[C@H]1CN(CCc1ccccc1)C(=O)CF)[C@@H](C)OCC#CC#CCO[C@H](C)[C@H](NC(=O)[C@H](C)NC)C(=O)N1CCC[C@H]1CN(CCc1ccccc1)C(=O)CF [Compound 29]	< 100
